Experimental data reported in ChEMBL document CHEMBL1201862, “PubChem BioAssay data set” (2004).
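Tested at 5 concentrations; 48 h exposure; 96-well plates; endpoints linearly interpolated, else capped at highest concentration. Here, GI50 denotes the concentration required for 50% inhibition of growth.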 Calls of active or inactive are those of the source. Rule as the data show it: active = GI50 up to about 1.1 µM and inactive = higher.

Tests used:
Experiment in all cases: DTP human tumour cell line panel, 48 h
786-0 = tested on: 786-0
A498 = tested on: A498
A549 = tested on: A549
ACHN = tested on: ACHN
BT-549 = tested on: BT-549
CAKI-1 = tested on: CAKI-1
CCRF-CEM = tested on: CCRF-CEM
COLO 205 = tested on: COLO 205
DU-145 = tested on: DU-145
EKVX = tested on: EKVX
HCC 2998 = tested on: HCC 2998
HCT-116 = tested on: HCT-116
HCT-15 = tested on: HCT-15
HL-60 = tested on: HL-60
HOP-92 = tested on: HOP-92
HT-29 = tested on: HT-29
Hs-578T = tested on: Hs-578T
IGROV-1 = tested on: IGROV-1
K562 = tested on: K562
KM12 = tested on: KM12
LOX IMVI = tested on: LOX IMVI
M14 = tested on: M14
MCF7 = tested on: MCF7
MDA-MB-231 = tested on: MDA-MB-231
MDA-MB-435 = tested on: MDA-MB-435
MDA-N = tested on: MDA-N
MOLT-4 = tested on: MOLT-4
Malme-3M = tested on: Malme-3M
NCI-H226 = tested on: NCI-H226
NCI-H23 = tested on: NCI-H23
NCI-H460 = tested on: NCI-H460
NCI/ADR-RES = tested on: NCI/ADR-RES
OVCAR-3 = tested on: OVCAR-3
OVCAR-5 = tested on: OVCAR-5
OVCAR-8 = tested on: OVCAR-8
PC-3 = tested on: PC-3
RPMI-8226 = tested on: RPMI-8226
RXF 393 = tested on: RXF 393
SF-268 = tested on: SF-268
SF-295 = tested on: SF-295
SF-539 = tested on: SF-539
SK-MEL-5 = tested on: SK-MEL-5
SK-OV-3 = tested on: SK-OV-3
SN12C = tested on: SN12C
SNB-19 = tested on: SNB-19
SNB-75 = tested on: SNB-75
SR = tested on: SR
SW-620 = tested on: SW-620
T47D = tested on: T47D
TK-10 = tested on: TK-10
U-251 = tested on: U-251
UACC-257 = tested on: UACC-257
UACC-62 = tested on: UACC-62
UO-31 = tested on: UO-31
HOP-62 = tested on: HOP-62
OVCAR-4 = tested on: OVCAR-4
SK-MEL-28 = tested on: SK-MEL-28
SK-MEL-2 = tested on: SK-MEL-2

Measured: GI50

OC1CSc2nc3ccccc3n2C1 (stereo not drawn)
inactive: 786-0 > 100 µM | A498 > 100 µM | A549 > 100 µM | ACHN > 100 µM | BT-549 > 100 µM | CAKI-1 > 100 µM | CCRF-CEM > 100 µM | COLO 205 > 100 µM | DU-145 > 100 µM | EKVX > 100 µM | HCC 2998 > 100 µM | HCT-116 > 100 µM | HL-60 > 100 µM | HOP-92 > 100 µM | HT-29 > 100 µM | Hs-578T 23.8 µM | IGROV-1 > 100 µM | K562 > 100 µM | KM12 > 100 µM | LOX IMVI > 100 µM | M14 > 100 µM | MCF7 > 100 µM | MDA-MB-231 > 100 µM | MDA-MB-435 > 100 µM | MDA-N > 100 µM | MOLT-4 > 100 µM | Malme-3M > 100 µM | NCI-H226 > 100 µM | NCI-H23 > 100 µM | NCI-H460 > 100 µM | NCI/ADR-RES > 100 µM | OVCAR-3 > 100 µM | OVCAR-5 > 100 µM | OVCAR-8 > 100 µM | PC-3 > 100 µM | RPMI-8226 > 100 µM | RXF 393 > 100 µM | SF-268 > 100 µM | SF-295 > 100 µM | SF-539 > 100 µM | SK-MEL-5 > 100 µM | SK-OV-3 > 100 µM | SN12C > 100 µM | SNB-19 > 100 µM | SNB-75 17.9 µM | SR > 100 µM | SW-620 > 100 µM | T47D > 100 µM | TK-10 > 100 µM | U-251 > 100 µM | UACC-257 > 100 µM | UACC-62 > 100 µM | UO-31 > 100 µM
> 100 µM: HCT-15

CC(C)CCCC(C)[C@H]1CC[C@H]2N/C(=N/Cc3ccccc3)CCC[C@]12C (stereo partly drawn)
1.67 µM: HCT-15
inactive: 786-0 2 µM | A498 1.95 µM | A549 1.83 µM | BT-549 2.72 µM | CAKI-1 2.25 µM | CCRF-CEM 2.13 µM | COLO 205 1.42 µM | DU-145 2.52 µM | HCT-116 2.6 µM | HL-60 2.11 µM | HOP-62 2.46 µM | HOP-92 2.09 µM | HT-29 1.28 µM | Hs-578T 3.37 µM | IGROV-1 1.74 µM | K562 1.26 µM | KM12 1.88 µM | LOX IMVI 1.92 µM | M14 2.32 µM | MCF7 1.71 µM | MDA-MB-231 2.05 µM | MDA-MB-435 1.64 µM | MDA-N 1.71 µM | MOLT-4 1.88 µM | Malme-3M 1.97 µM | NCI-H226 2.07 µM | NCI-H23 2.23 µM | NCI-H460 1.66 µM | NCI/ADR-RES 1.65 µM | OVCAR-3 2.07 µM | OVCAR-4 1.98 µM | OVCAR-8 1.67 µM | PC-3 1.81 µM | RPMI-8226 1.59 µM | RXF 393 1.53 µM | SF-268 2.2 µM | SF-295 2.03 µM | SF-539 1.83 µM | SK-MEL-28 1.47 µM | SK-MEL-2 1.97 µM | SK-MEL-5 1.58 µM | SK-OV-3 5.31 µM | SN12C 1.84 µM | SNB-19 2.94 µM | SNB-75 1.83 µM | SR 2.72 µM | SW-620 1.91 µM | T47D 2.83 µM | TK-10 2.08 µM | U-251 1.78 µM | UACC-257 2.42 µM | UACC-62 1.83 µM | UO-31 2.59 µM
